Values of other authors as cited in patent US5223503A, “6-substituted pyrido[2,3-d]pyrimidines as antineoplastic agents” (Eli Lilly and Company, priority 1992, dated 1993).

System: solid tumors
Details: Proc. Amer. Assoc. Cancer Res., 31, 1053 (1990)

Nc1nc2c(c(=O)[nH]1)CC(CCc1ccc(C(=O)N[C@@H](CCC(=O)O)C(=O)O)cc1)CN2 (stereo partly shown) [lometrexol, 5,10-dideazatetrahydrofolic acid]
clinical efficacy against solid tumors: clinical efficacy against solid tumors
